Assay results as given in patent publication US20180024136A1, “Development of ABCG2-Sensitive Fluorescent Probe For Isolation of ABCG2low Neural Stem/Progenitor Cells” (National University of Singapore, priority 2015, published 2018).

How the values were obtained:
[1] = Spectroscopic properties of CF library (absorbance, emission, quantum yield, extinction coefficient); assay type: physicochemical
Experimental: All the chemicals and solvents were purchased from Sigma Aldrich, Alfa Aesar, Fluka, MERCK, Tocris or Acros, and used without further purification. Normal phase purifications were carried out using Merck Silica Gel 60 (particle size: 0.040-0.063 mm, 230-400 mesh). Analytical characterization was performed on a HPLC-MS (Agilent-1200 series) with a DAD detector and a single quadrupole mass spectrometer (6130 series) with an ESI probe. ^1H-NMR and ^13C-NMR spectra were recorded on Bruker Avance 300 MHz NMR spectrometers, and chemical shifts are expressed in parts per million (ppm) and coupling constants are reported as a J value in Hertz (Hz). High resolution mass spectrometry (HRMS) data was recorded on a Micro mass VG 7035 (Mass Spectrometry Laboratory at National University of Singapore (NUS)). Spectroscopic and quantum yield data were measured on spectroscopic measurements, performed on a fluorometer and UV/VIS instrument, Synergy 4 of Bioteck Company. The slit width was 1 nm for both excitation and emission, and the data analysis was performed using GraphPrism 5.0.

Abcg2 = experiment: CDg13 staining of Abcg2 knockdown D-NS5 cells; assay type: cell-based, mouse; conditions: D-NS5, siAbcg2 versus controls, 1 hour staining
Experimental: FIGS. 9A-9D show gene expression of ABC transporters: (A) undifferentiated (NS5) and 3-days differentiated NS5 (D-NS5), (B) the mRNA expression of the indicated ABC transporters were analyzed by qRT-PCR using total RNA from control and Abcg2-targeted siRNA transfected D-NS5 cells (N=3), and (C) and (D) negative (−) control siRNA (siCon) and Abcg2-targeted siRNA (siAbcg2) treated D-NS5 cells were stained with CDg13 for 1 hour, representative cells image (C) and the intensity staining of CDg13 (D) are shown (N=3) (data were normalized by β-actin expression and represented as relative fold, all values are means±SEM, *, p<0.05; **, p<0.01, unpaired two-tailed Student's T-test was used to calculate statistical significance)(Bar in (C): 100 μm).
siRNAs targeted to mouse ABCG2 gene and non-targeted control (Santa Cruz) were transiently introduced to 2 days differentiated NS-5 cells by using RNAiMAX (Invitrogen). We used 20 nM of siRNA and 3 μl of RNAiMAX for transfecting one well of 12-well plate (70-80% confluence with cells). Transfection efficiency in the condition was more than 90% as measured by fluorescence non-targeted siRNA. The levels of RNA and their analysis were performed after 3 days of transfection.

mouse NSPCs = experiment: Neurosphere size after co-incubation with probe; assay type: cell-based; conditions: 1 μM, 7 days
human KB3-1 cells = experiment: MTS viability assay on KB3-1 cells; assay type: cell-based; conditions: 48 h
[2] = system: neurospheres from E14.5 mouse embryonic brain; experiment: Neuronal differentiation of primary neurospheres (Tuj1/GFAP immunostaining); assay type: cell-based; conditions: neurospheres from sorted cells, 150 per group
Experimental: All animal experiments were approved by the Biomedical Research Council Singapore, Institutional Animal Care and Use Committee (IACUC). E14.5 embryos were obtained from C57BL/6 pregnant mice. Cerebral cortices were removed and triturated into single-cell suspension by digestion of dissected tissues with StemPro® Accutase® (Invitrogen) and filtered through 40 μm nylon mesh. Dissociated cells were seeded at a density of 1×10^3 cells/cm^2 in neurosphere growth medium [DMEM/F12 supplemented with 2% B27 (without vitamin A), bFGF (10 ng/ml), EGF (20 ng/ml), 1× anti-anti]. All the cell culture components were from Invitrogen. Passaging of neurosphere was conducted through single cell dissociation of neurospheres as described above. […]
More than a hundred of differentiated neurospheres were fixed in paraformaldehyde (4%, w/v) for 15 min, permeabilized in Triton X-100 (0.1% v/v), and blocked with BSA (3% w/v) for 1 hour. […] The existence of clear Tuj1 positive cells inside a differentiated neurosphere were counted as neuron-contained neurospheres. Neuronal clumps were counted if more than 10 of nuclei of neuronal cells are packaged each other. Neurite outgrowth of Tuj1 positive cells were measured using neurite outgrowth module parameter of MetaXpress ([…]) with maximum width of 1 μm. The phases with high neurite outgrowth were selected and counted at least 300 cells.

CCCCCCCCCN(CCCCCCCCC)C(=O)c1ccc(-c2c3cc(Cl)c(=O)cc-3oc3cc(O)c(Cl)cc23)cc1 [CDg13]
Abs (nm) ([1]; 100 μM in ethanol): 520 nm | Em (nm) ([1]; 100 μM in ethanol): 553 nm | QY (Φ) ([1]; 100 μM in ethanol, reference fluorescein): 0.82 | extinction co-efficient ([1]; measured in ethanol): 40933.2 M⁻¹ cm⁻¹ | CDg13 staining increase by Abcg2 knockdown (Abcg2): around 2 fold | effect on neurosphere size (mouse NSPCs): no significant difference in neurosphere size | neurosphere size on average (mouse NSPCs; third passage): 109 μm | toxicity (human KB3-1 cells; 1 to 10 μM): No toxicity was observed | concentration at which cells started dying (human KB3-1 cells): 50 µM | neurospheres differentiated to neuron in the whole spheres [2]: 95.3%
